Laboratory results: patent US8597616B2 (priority 2007, dated 2013)

What was measured:
[1] = system: swine model of cardiac arrest; conditions: in vivo
normovolemic swine model = conditions: in vivo

SMILES: CNC[C@H](O)c1ccc(O)c(O)c1 [epinephrine, (R)-4-(1-hydroxy-2-(methylamino)ethyl)benzene-1,2-diol]
- peak MAP [1]: 90 mmHg
- sustained pressure over baseline [1]: greater than 50 mmHg
- time post injection at which increases in MAP were detected [1]: 10 to 20 s
- time post injection to peak MAP [1]: ≤ 60 s
- time to MAP peak at sustained pressure over baseline [1]: ≤ 80 s
- time until physiological effects (increase in MAP over baseline MAP) were detected [1]: < 20 seconds
- time until rapid and sustained MAP occurred [1]: < 60 s
- increase of MAP over baseline (normovolemic swine model): more than 60 mmHg
- time post injection at which increases in MAP were detected (normovolemic swine model): 10 to 20 s
- time post injection to peak MAP (normovolemic swine model): ≤ 60 s
- sustained MAP (normovolemic swine model; 0.4 mg/kg): more than 60 mmHg
- time post-injection at which an increase in MAP was detected (normovolemic swine model; iv): 30 s
- time from administration until absorbed and placed into the circulating blood (normovolemic swine model; swine): 10 to 20 s
